The results in this text go back to patent US7063842B2, “Compounds and methods for inhibiting the interaction between α-catenin and β-catenin” (McGill University, priority 1997, dated 2006).

Positions of bridges follow the written chain, without caps; N, C: chain ends.

Assay [1] concerns α-catenin/β-catenin interactions. The assay is described as follows: Immunoprecipitation from adult mouse brain extracts, Western blot probed with anti-α-catenin / anti-β-catenin antibodies. The class given is binding. As to conditions: adult mouse brain homogenate incubated 3 hours at 4° C. with peptide at 1 mg/ml. As for the experimental part: As noted above, modulating agents are capable of disrupting an interaction between α-catenin and β-catenin. This ability may generally be evaluated using any suitable assay known to those of ordinary skill in the art. For example, an immunoprecipitation as described herein may be employed. Within such an assay, disruption of the interaction is measured by assessing the ability of an antibody directed against β-catenin to immunoprecipitate α-catenin in the presence and absence of the modulating agent. For example, tissue such as brain may be homogenized in the presence and absence of modulating agent. The ability of an antibody directed against β-catenin to immunoprecipitate α-catenin from the homogenate is then assessed by probing a Western blot of proteins immunoprecipitated from the tissue homogenate by anti-β-catenin antibody with an anti-α-catenin antibody. […]
These peptides, as well as two control peptides (H-CKHGWNC-OH, SEQ ID NO:6, and H-CKHGWNC-OH, SEQ ID NO:51) were analyzed for their ability to disrupt α-catenin/β-catenin interactions, as judged by standard immunoprecipitation methods. […] Finally, the membrane was washed 3 times with TTBS, and the immunoreactive proteins were detected using an enhanced chemiluminescence kit (ECL; Amersham Life Sciences Inc., Oakville, Ontario) and autoradiographic film (Fuji, Minami-Ashigara, Japan). […]
(A western blot detects proteins with antibodies after separation by electrophoresis.)

In assay [2] the test system is Normal human breast A1N4 cells. The assay is described as follows: Disruption of cell adhesion: microinjection of peptide/DAPI mixture into cells, morphology noted at hourly intervals. The settings on record: 0.2 pL peptide/DAPI mixture injected, final intracellular concentration of peptide 0.5 mg/ml, after 4 hours. The assay is classed as cell-based. The method, then: Three peptides (N-Ac-CKHAVVNC-NH2, N-Ac-CKHGWNC-NH2, and H-KHAVVN-OH; SEQ ID NOS: 5, 51 and 8 respectively) were tested for their ability to disrupt cell adhesion. Normal human breast A1N4 cells were grown on gridded glass coverslips to approximately 30% confluence. Peptides were dissolved in distilled water at a concentration of […]. Each of the three peptide solutions was mixed 1:1 with a solution containing the fluorescent marker DAPI (Molecular Probes Inc., Eugene, Oreg.) dissolved in water at a concentration of 40 μg/ml. All of the mixtures were centrifuged at 10,000×g for 5 minutes immediately before use in the experiments. An aliquot ([…]) of each peptide/DAPI mixture was taken up in an Eppendorff microinjection pipette. Microinjection was performed using an Eppendorf microinjector and micromanipulator coupled to an IM35 inverted Zeiss microscope with phase contrast and Hoffman optics. Cells to be injected were located and their position on the grid noted. For microinjection, the pipette was brought close to the cell layer and the micromanipulator programmed to return to the same plane. Cells were injected with 0.2 pL of peptide/DAPI mixture. This corresponds to approximately 1/100 of the cell volume and results in a final intracellular concentration of peptide of 0.5 mg/ml. […] After 4 hours, a difference in the morphology of the cells injected with the various peptides was observed.

In the case of “H-CKHAVVNC-OH (cysteine pairing not given here) [H-CKHAVVNC-OH (SEQ ID NO:4)]”, the “ability to disrupt α-catenin/β-catenin interactions, as judged by immunoprecipitation” value in assay [1] is “capable of disrupting the interaction between α-catenin and β-catenin”.
Still for that read-out and setting: then “H-Cys-Lys-His-Ala-Val-Val-Asn-Cys-OH (H-CKHAVVNC-OH; cysteine pairing not given here) [H-CKHAVVNC-OH (SEQ ID NO:5)]”, with “capable of disrupting the interaction between α-catenin and β-catenin”.
On to H-KHAVVN-OH [H-KHAVVN-OH (SEQ ID NO:8)], for which, in assay [2], the “morphology of the injected cells” value is “had become rounded, and they were detached from their neighbors”.
For the substance “N-Ac-CKHAVVNC-NH2 (disulfide 1-8 (inferred)) [N-Ac-CKHAVVNC-NH2 (SEQ ID NO:5)]”, the “morphology of the injected cells” value in assay [2] was “indistinguishable from surrounding uninjected cells”.
Still for that read-out and setting: then “Ac-CKHGWNC-NH2 (cysteine pairing not given here) [N-Ac-CKHGWNC-NH2 (SEQ ID NO:51), reference compound]”, with “indistinguishable from surrounding uninjected cells”.
